The subject of one assay is Caco-2 cells. Description: Proliferation assay Caco-2. The format is cell-based, human. The following applies: Homo sapiens, Caco-2, 96 h, 4 days, crystal violet; read-out: Inhibition of Caco-2 cell proliferation IC50. As for the experimental part: (§1) Cultivated tumour cells (HeLa, human cervical tumour cells, ATCC CCL-2; NCI-H460, human non-small cell lung carcinoma cells, ATCC HTB-177; A2780, human ovarian carcinoma cells, ECACC #93112519; DU 145, hormone-independent human prostate carcinoma cells, ATCC HTB-81; HeLa-MaTu-ADR, multidrug-resistant human cervical carcinoma cells, EPO-GmbH Berlin; Caco-2, human colorectal carcinoma cells, ATCC HTB-37; B16F10, mouse melanoma cells, ATCC CRL-6475) were plated at a density of 5,000 cells/well (DU145, HeLa-MaTu-ADR), 3,000 cells/well (NCI-H460, HeLa), 2,500 cells/well (A2780), 1,500 cells/well (Caco-2), or 1,000 cells/well (B16F10) in a 96-well multititer plate in 200 μL of their respective growth medium supplemented 10% fetal calf serum. After 24 hours, the cells of one plate (zero-point plate) were stained with crystal violet (see below), while the medium of the other plates was replaced by fresh culture medium (200 μl), to which the test substances were added in various concentrations (0 μM, as well as in the range of 0.001-10 μM). The cells were incubated for 4 days in the presence of test substances. Cell proliferation was determined by staining the cells with crystal violet: the cells were fixed by adding 20 μl/measuring point of an 11% glutaric aldehyde solution for 15 minutes at room temperature. After three washing cycles of the fixed cells with water, the plates were dried at room temperature. The cells were stained by adding 100 μl/measuring point of a 0.1% crystal violet solution (pH 3.0). After three washing cycles of the stained cells with water, the plates were dried at room temperature. The dye was dissolved by adding 100 μl/measuring point of a 10% acetic acid solution. The extinction was determined by photometry at a wavelength of 595 nm. The change of cell number, in percent, was calculated by normalization of the measured values to the extinction values of the zero-point plate (=0%) and the extinction of the untreated (0 μm) cells (=100%). The IC50 values (inhibitory concentration at 50% of maximal effect) were determined by means of a 4 parameter fit. Non-adherent MOLM-13 human acute myeloid leukemia cells (DSMZ ACC 554) were seeded at a density of 5,000 cells/well in a 96-well multititer plate in 100 μL of growth medium supplemented 10% fetal calf serum. After 24 hours, cell viability of one plate (zero-point plate) was determined with the Cell Titre-Glo Luminescent Cell Viability Assay (Promega), while 50 μL of test compound containing medium was added to the wells of the other plates (final concentrations in the range of 0.001-1 μM and DMSO controls). Cell viability was assessed after 72-hour exposure with the Cell Titre-Glo Luminescent Cell Viability Assay (Promega). IC50 values (inhibitory concentration at 50% of maximal effect) were determined by means of a 4 parameter fit on measurement data which were normalized to vehicle (DMSO) treated cells (=100%) and measurement readings taken immediately before compound exposure (=0%).

Another assay concerns the target T1, CDK2/CycE (Homo sapiens, UniProt P24941).
T1 construct: GST; purchased ProQinase GmbH (Freiburg, Germany); host or cells: insect cells (Sf9)
The assay can be described thus: CDK2/CycE kinase assay (TR-FRET, Method 2a). The format is biochemical. The following applies: 10 μM ATP. From the text: 2a. CDK2/CycE Kinase Assay:
CDK2/CycE-inhibitory activity of compounds of the present invention was quantified employing the CDK2/CycE TR-FRET assay as described in the following paragraphs:
Recombinant fusion proteins of GST and human CDK2 and of GST and human CycE, expressed in insect cells (Sf9) and purified by Glutathion-Sepharose affinity chromatography, were purchased from ProQinase GmbH (Freiburg, Germany). As substrate for the kinase reaction biotinylated peptide biotin-Ttds-YISPLKSPYKISEG (C-terminus in amid form) was used which can be purchased e.g. from the company JERINI Peptide Technologies (Berlin, Germany).
For the assay 50 nl of a 100 fold concentrated solution of the test compound in DMSO was pipetted into a black low volume 384 well microtiter plate (Greiner Bio-One, Frickenhausen, Germany), 2 μl of a solution of CDK2/CycE in aqueous assay buffer [50 mM Tris/HCl pH 8.0, 10 mM MgCl2, 1.0 mM dithiothreitol, 0.1 mM sodium ortho-vanadate, 0.01% (v/v) Nonidet-P40 (Sigma)] were added and the mixture was incubated for 15 min at 22° C. to allow pre-binding of the test compounds to the enzyme before the start of the kinase reaction. […] The concentration of CDK2/CycE was adjusted depending of the activity of the enzyme lot and was chosen appropriate to have the assay in the linear range, typical concentrations were in the range of 130 ng/mL. The reaction was stopped by the addition of 5 μl of a solution of TR-FRET detection reagents (0.2 μM streptavidine-XL665 [Cisbio Bioassays, Codolet, France] and 1 nM anti-RB(pSer807/pSer811)-antibody from BD Pharmingen [#558389] and 1.2 nM LANCE EU-W1024 labeled anti-mouse IgG antibody [Perkin-Elmer, product no. AD0077]) in an aqueous EDTA-solution (100 mM EDTA, 0.2% (w/v) bovine serum albumin in 100 mM HEPES pH 7.5).
The resulting mixture was incubated 1 h at 22° C. to allow the formation of complex between the phosphorylated biotinylated peptide and the detection reagents. Subsequently the amount of phosphorylated substrate was evaluated by measurement of the resonance energy transfer from the Eu-chelate to the streptavidine-XL. Therefore, the fluorescence emissions at 620 nm and 665 nm after excitation at 350 nm was measured in a TR-FRET reader, e.g. a Rubystar (BMG Labtechnologies, Offenburg, Germany) or a Viewlux (Perkin-Elmer). The ratio of the emissions at 665 nm and at […] was taken as the measure for the amount of phosphorylated substrate. The data were normalised (enzyme reaction without inhibitor=0% inhibition, all other assay components but no enzyme=100% inhibition).
In general terms: Time-resolved FRET reads energy transfer from a long-lived donor to a nearby acceptor.

A further assay relates to HeLa-MaTu-ADR cells. The assay can be described thus: Proliferation assay HeLa-MaTu-ADR. The format is cell-based, human. To be noted: Homo sapiens, 96 h, 4 days, crystal violet; read-out: Inhibition of HeLa-MaTu-ADR cell proliferation IC50. As for the experimental part:
as §1

Take `CS(=N)(=O)Cc1cc2cc(c1)OCCCCOc1cc(F)ccc1-c1nc(ncc1F)N2` (racemic) [Example 1, (rac)-16,20-Difluoro-9-[(S-methylsulfonimidoyl)methyl]-2,3,4,5-tetrahydro-12H-13,17-(azeno)-11,7-(metheno)-1,6,12,14-benzodioxadiazacyclononadecine]: the IC50 in the assay with Caco-2 cells is 0.009 µM; against CDK2/CycE it was 0.0212 µM.
In the case of `C[S+]([O-])Cc1cc2nc(c1)OCCCOc1cc(F)ccc1-c1cc(ncc1F)N2` (racemic) [Example 4, (rac)-15,19-Difluoro-8-[(methylsulfinyl)methyl]-3,4-dihydro-2H,11H-10,6-(azeno)-12,16-(metheno)-1,5,11,13-benzodioxadiazacyclooctadecine], the IC50 in the assay on Caco-2 cells is 0.01 µM; in the assay on HeLa-MaTu-ADR cells, 0.01 µM; on CDK2/CycE, 0.0046 µM.
`CS(=N)(=O)Cc1cc2nc(c1)OCCCOc1cc(F)ccc1-c1cc(ncc1F)N2` (racemic) [Example 5, (rac)-15,19-Difluoro-8-[(S-methylsulfonimidoyl)methyl]-3,4-dihydro-2H,11H-10,6-(azeno)-12,16-(metheno)-1,5,11,13-benzodioxadiazacyclooctadecine]: the IC50 with Caco-2 cells is 0.004 µM; against CDK2/CycE, 0.002 µM.
For `C[S+]([O-])Cc1cc2nc(c1)OCCOc1cc(F)ccc1-c1cc(ncc1F)N2` (racemic) [Example 10, (rac)-14,18-difluoro-7-[(methylsulfinyl)methyl]-2,3-dihydro-10H-9,5-(azeno)-11,15-(metheno)-1,4,10,12-benzodioxadiazacycloheptadecine], the IC50 in the assay with Caco-2 cells came out at 0.584 µM; in the assay with HeLa-MaTu-ADR cells, 0.476 µM; at CDK2/CycE it was 0.415 µM.
The matching figures for `CS(=N)(=O)Cc1cc2nc(c1)OCCOc1cc(F)ccc1-c1cc(ncc1F)N2` (racemic) [Example 11, (rac)-14,18-difluoro-7-[(S-methylsulfonimidoyl)methyl]-2,3-dihydro-10H-9,5-(azeno)-11,15-(metheno)-1,4,10,12-benzodioxadiazacycloheptadecine]: 0.158 µM, 0.185 µM and 0.18 µM.
The matching figures for `C[S+]([O-])Cc1cc2nc(c1)OCCCCOc1cc(F)ccc1-c1cc(ncc1F)N2` (racemic) [Example 13, (rac)-16,20-difluoro-9-[(methylsulfinyl)methyl]-2,3,4,5-tetrahydro-12H-11,7-(azeno)-13,17-(metheno)-1,6,12,14-benzodioxadiazacyclononadecine]: 0.022 µM, 0.031 µM and 0.0167 µM.
In the same order, the values of `CS(=N)(=O)Cc1cc2nc(c1)OCCCCOc1cc(F)ccc1-c1cc(ncc1F)N2` (racemic) [Example 14, (rac)-16,20-difluoro-9-[(S-methylsulfonimidoyl)methyl]-2,3,4,5-tetrahydro-12H-11,7-(azeno)-13,17-(metheno)-1,6,12,14-benzodioxadiazacyclononadecine] are 0.013 µM, 0.02 µM and 0.0198 µM.
On to `CS(=N)(=O)Cc1cc2cc(c1)OCCCOc1cc(F)ccc1-c1nc(ncc1F)N2` (racemic) [Example 15, (rac)-15,19-difluoro-8-[(S-methylsulfonimidoyl)methyl]-3,4-dihydro-2H,11H-12,16-(azeno)-10,6-(metheno)-1,5,11,13-benzodioxadiazacyclooctadecine], for which the IC50 turned out to be 0.017 µM in the assay with Caco-2 cells, 0.014 µM with HeLa-MaTu-ADR cells and 0.026 µM against CDK2/CycE.
For the compound `CS(=O)(Cc1cc2cc(c1)OCCCOc1cc(F)ccc1-c1nc(ncc1F)N2)=NC(=O)C(F)(F)F` (racemic) [Example 16, (rac)-N-[{[15,19-difluoro-3,4-dihydro-2H,11H-12,16-(azeno)-10,6-(metheno)-1,5,11,13-benzodioxadiazacyclooctadecin-8-yl]methyl}(methyl)oxido-λ^6-sulfanylidene]-2,2,2-trifluoroacetamide], the IC50 in the assay with Caco-2 cells stood at 0.015 µM; in the assay on HeLa-MaTu-ADR cells, 0.012 µM; on CDK2/CycE it was 0.0582 µM.
In the case of `CCNC(=O)N=S(C)(=O)Cc1cc2nc(c1)OCCCOc1cc(F)ccc1-c1cc(ncc1F)N2` (racemic) [Example 17, (rac)-1-[{[15,19-difluoro-3,4-dihydro-2H,11H-10,6-(azeno)-12,16-(metheno)-1,5,11,13-benzodioxadiazacyclooctadecin-8-yl]methyl}(methyl)oxido-λ^6-sulfanylidene]-3-ethylurea], the IC50 in the assay on Caco-2 cells worked out at 0.021 µM; in the assay on HeLa-MaTu-ADR cells, 0.025 µM; on CDK2/CycE, 0.0056 µM.
The matching figures for `CC(=O)N=S(C)(=O)Cc1cc2nc(c1)OCCCOc1cc(F)ccc1-c1cc(ncc1F)N2` (racemic) [Example 18, (rac)-N-[{[15,19-difluoro-3,4-dihydro-2H,11H-10,6-(azeno)-12,16-(metheno)-1,5,11,13-benzodioxadiazacyclooctadecin-8-yl]methyl}(methyl)oxido-λ^6-sulfanylidene]acetamide]: 0.014 µM, 0.01 µM and 0.0082 µM.
In the same order, the values of `CN=S(C)(=O)Cc1cc2nc(c1)OCCCOc1cc(F)ccc1-c1cc(ncc1F)N2` (racemic) [Example 19, (rac)-8-[(N,S-dimethylsulfonimidoyl)methyl]-15,19-difluoro-3,4-dihydro-2H,11H-10,6-(azeno)-12,16-(metheno)-1,5,11,13-benzodioxadiazacyclooctadecine] are 0.033 µM, 0.038 µM and 0.0154 µM.
As to `CSCc1cc2nc(c1)OCCOc1cc(F)ccc1-c1cc(ncc1F)N2` [Example 9, 14,18-Difluoro-7-[(methylsulfanyl)methyl]-2,3-dihydro-10H-9,5-(azeno)-11,15-(metheno)-1,4,10,12-benzodioxadiazacycloheptadecine], the IC50 is 0.811 µM with Caco-2 cells and 18.2 µM against CDK2/CycE.

The values above are taken from patent publication US9963464B2, “Macrocyclic compounds” (Bayer Pharma Aktiengesellschaft, priority 2014, dated 2018).
